Key:
[1] = molecular target: LRRK2 Ser935 phosphorylation in SH-SY5Y cells over-expressing recombinant full length LRRK2 (Homo sapiens (Human), UniProt Q5S007); test: Recombinant cellular LRRK2 AlphaScreen assay; assay type: cell-based; conditions: 60 minutes, read-out: Recombinant cellular LRRK2 alphaScreen assay (pIC50) (converted)
From the text: To determine the activity of compounds against LRRK2 kinase activity in cells, the observed LRRK2 kinase-dependent modulation of LRRK2 Ser 935 phosphorylation (Dzamko et al., 2010, Biochem. J. 430: 405-413) was utilized to develop a quantitative 384 well plate-based immunoassay of LRRK2 Ser935 phosphorylation in the human neuroblastoma cell line SH-SY5Y, engineered to over-express recombinant full length LRRK2 protein.
A BacMam virus expressing full length recombinant LRRK2 was purchased from Invitrogen and amplified by inoculation of SF-9 cells at MOI 0.3 for 4-5 days in Sf-900 III SFM medium supplemented with 3% fetal bovine serum. Infected cell cultures were then centrifuged at 2000 g for 20 minutes, viral supernatant titer determined by anti-gp64 plaque assay and stored at 4° C.
Affinity-purified anti-phospho LRRK2 Ser935 sheep polyclonal antibody (Dzamko et al., 2010, Biochem. J. 430: 405-413) was biotinylated by standard methods (PerkinElmer). Anti-LRRK2 rabbit polyclonal antibody was purchased from Novus Biologicals. AlphaScreen Protein A IgG Kit (including acceptor and donor beads) was purchased from Perkin Elmer.
SH-SY5Y cells were grown in DMEM/F12 medium with 10% dialysed fetal bovine serum and harvested by treatment with 0.5% trypsin-EDTA for 5 minutes at 37° C. followed by centrifugation at 1000 rpm for 4 minutes. The cell pellet was resuspended in Opti-MEM reduced serum media (Invitrogen) at 200,000 cells/ml and mixed with the BacMam LRRK2 virus at M01=50. 50 μl cell solutions were then dispensed to each well of a 384-well plate and incubated at 37° C., 5% CO2 for 24 hours.
Serial dilutions of test compounds were prepared in Opti-MEM reduced serum media (Invitrogen) and 5.6 ul transferred from compound plate to cell assay plate to achieve a top final assay concentration of 10 uM. DMSO was used in certain wells as controls. Cells were incubated at 37° C., 5% CO2 for 60 minutes. The medium was then removed and cells lysed by addition of 20 ul cell lysis buffer (Cell Signaling Technology) and incubation at 4° C. for 20 minutes. 10 ul of antibody/acceptor bead mix [( 1/1000 biotinylated-pS935 LRRK2 antibody, 1/1000 total-LRRK2 antibody, 1/100 Acceptor beads in AlphaScreen detection buffer (25 mM Hepes (pH 7.4), 0.5% Triton X-100, 1 mg/ml Dextran 500 and 0.1% BSA)] was then added to each well and plates incubated for 2 hours at ambient temperature in the dark. 10 μl of donor beads solution (1/33.3 donor beads in AlphaScreen detection buffer) was then added to each well. Following incubation for a further 2 hours at ambient temperature in the dark, plates were read on an EnVision™ plate reader at emission 520-620 nm with excitation 680 nm. Dose response curve data was based on sigmoidal dose-response model.

[2] = molecular target: Full length G2019 human LRRK2 (Homo sapiens (Human), UniProt Q5S007); test: Full length G2019 human LRRK2 inhibition mass spectrometry assay; assay type: biochemical; conditions: Full length Flag-LRRK2, 25 uM LRRKtide, 2 mM ATP; for IC50: read-out: Full length G2019 human LRRK2 Inhibition mass spectrometry assay (pIC50) (converted)
Method: Mass Spectrometer Settings • LRRKtide Detection settings: Q1 mass 644.8 Da, Q3 mass 638.8, declustering potential 76 volts, collision energy 37 volts, CXP 34 volts • Phospho-LRRKtide Detection settings: Q1 mass 671.4 Da, Q3 mass 638.8, Declustering potential 76 volts, Collision energy 37 volts, CXP 34 volts. • A C4 cartridge was used and running buffers were: A (aqueous) 0.1% formic acid in water B (organic) 0.1% formic acid, 80% acetonitrile, 20% water • 5. Data was analysed using ActivityBase software (IDBS). A percent conversion from LRRKtide to Phospho-LRRKtide was calculated using the following formula: % conversion=(Phospho-LRRKtide product peak area/(Phospho-LRRKtide product peak area+LRRKtide substrate peak area))*100 2) Full Length G2019 Human LRRK2 Inhibition Mass Spectrometry Assay Insect Cell Cultures
Sf9 insect cells (Invitrogen Life Technologies, Carlsbad, Calif.) were maintained at 27° C. in SF 900 II SFM in 500-ml stationary flasks. The cells were maintained in exponential growth phase and subcultured twice per week. For larger volumes, cells were grown in 2-liter shaker flasks (Erlenmeyer, Corning) while being agitated with 120 rpm at 27° C. incubator shaker.
Human G2019 LRRK2 Plasmids Preparation
Primers Used for PCR Cloning:
• pHTBV-F: SEQ ID No: 1 • LRRK2 wt-F1: SEQ ID No: 2 • LRRK2 wt-R1: SEQ ID No: 3 • LRRK2 wt-F2: SEQ ID No: 4 • LRRK2 wt-R2: SEQ ID No: 5 • LRRK2 wt-F3: SEQ ID No: 6 • pHTBV-R: SEQ ID No: 7
The primers described above were used to amplify full length human LRRK2 (amino acids from 1-2527) with N terminal Flag tag from BioCat 116313 using high fidelity PCR polymerase KOD-Plus according to the manufacturer's instructions (KOD-211, TOYOBO). The PCR product was digested with BamHI and KpnI and ligated into BamHI and KpnI digested pHTBV1mcs3 (BioCat 127555). The sequence of the target fragment was confirmed by DNA sequencing. The construct BioCat141351 was generated by Novoprotein.
The G2019 full length Flag-LRRK2 coding sequence is SEQ ID No: 8.
The translated protein sequence for human G2019 full length LRRK2 flag tagged protein is SEQ ID No: 9.
Generation of the BacMam Virus
To generate the recombinant BacMam virus, SF9 cells were seeded in 6-well tissue culture dishes at 9×10^5 cells/well and allowed to attach for 20 min. Transfection procedure was followed using AESOP AP5911v2. Briefly, DH10Bac competent cells (10361-012, Invitrogen) were transformed by the genotypically normal human LRRK2 BacMam plasmid to generate the recombinant baculovirus DNA. The Sf9 insect cells were co-transfected with the mixture of recombinant baculovirus DNA and cellfectin (10362-100, Invitrogen). After 4 h of incubation at 27° C., the transfection media was replaced with Sf-900 III SFM medium containing 5% HI FBS (Ser. No. 10/100,147, Invitrogen). The cells were further incubated for 4 days. The infected cell culture medium containing the baculovirus (P0 virus stock) was collected and amplified by further infecting the Sf9 cells at multiplicity of infection (MOI) (pfu/cell) of 0.1.
Quantification of BacMam Viral Titre by BacPAKRapid Titer
The viral titre, measured as plaque forming unit (pfu)/ml was determined using BacPAK Papid Titer Kit (631406, Clontech) according to the manufacturer's protocol. The Sf9 cells seeded in 96-well plate with 3×10^5 cells per well were incubated with serial dilution of the viral stocks for 1 h at 27° C., 50 μl methyl cellulose overlay was added to each well followed by 43-47 h incubation. The cells were then fixed in 4% paraformaldehyde (PFA). After blocking the cells with diluted normal goat serum, Mouse anti-gp64 antibody was added to the cells. After 30 min incubation, the cells were washed with phosphate buffered saline containing 0.1% Triton-X100 (PBST) and incubated for another 30 min with goat anti-mouse antibody/HRP conjugate. This was followed by blue peroxidase substrate which detects the single infected cells and foci of infected cells by their dark blue color. […]

LRRK2 Ser935 phosphorylation in SH-SY5Y cells over-expressing recombinant full length LRRK2, sequence (Q5S007 whole entry): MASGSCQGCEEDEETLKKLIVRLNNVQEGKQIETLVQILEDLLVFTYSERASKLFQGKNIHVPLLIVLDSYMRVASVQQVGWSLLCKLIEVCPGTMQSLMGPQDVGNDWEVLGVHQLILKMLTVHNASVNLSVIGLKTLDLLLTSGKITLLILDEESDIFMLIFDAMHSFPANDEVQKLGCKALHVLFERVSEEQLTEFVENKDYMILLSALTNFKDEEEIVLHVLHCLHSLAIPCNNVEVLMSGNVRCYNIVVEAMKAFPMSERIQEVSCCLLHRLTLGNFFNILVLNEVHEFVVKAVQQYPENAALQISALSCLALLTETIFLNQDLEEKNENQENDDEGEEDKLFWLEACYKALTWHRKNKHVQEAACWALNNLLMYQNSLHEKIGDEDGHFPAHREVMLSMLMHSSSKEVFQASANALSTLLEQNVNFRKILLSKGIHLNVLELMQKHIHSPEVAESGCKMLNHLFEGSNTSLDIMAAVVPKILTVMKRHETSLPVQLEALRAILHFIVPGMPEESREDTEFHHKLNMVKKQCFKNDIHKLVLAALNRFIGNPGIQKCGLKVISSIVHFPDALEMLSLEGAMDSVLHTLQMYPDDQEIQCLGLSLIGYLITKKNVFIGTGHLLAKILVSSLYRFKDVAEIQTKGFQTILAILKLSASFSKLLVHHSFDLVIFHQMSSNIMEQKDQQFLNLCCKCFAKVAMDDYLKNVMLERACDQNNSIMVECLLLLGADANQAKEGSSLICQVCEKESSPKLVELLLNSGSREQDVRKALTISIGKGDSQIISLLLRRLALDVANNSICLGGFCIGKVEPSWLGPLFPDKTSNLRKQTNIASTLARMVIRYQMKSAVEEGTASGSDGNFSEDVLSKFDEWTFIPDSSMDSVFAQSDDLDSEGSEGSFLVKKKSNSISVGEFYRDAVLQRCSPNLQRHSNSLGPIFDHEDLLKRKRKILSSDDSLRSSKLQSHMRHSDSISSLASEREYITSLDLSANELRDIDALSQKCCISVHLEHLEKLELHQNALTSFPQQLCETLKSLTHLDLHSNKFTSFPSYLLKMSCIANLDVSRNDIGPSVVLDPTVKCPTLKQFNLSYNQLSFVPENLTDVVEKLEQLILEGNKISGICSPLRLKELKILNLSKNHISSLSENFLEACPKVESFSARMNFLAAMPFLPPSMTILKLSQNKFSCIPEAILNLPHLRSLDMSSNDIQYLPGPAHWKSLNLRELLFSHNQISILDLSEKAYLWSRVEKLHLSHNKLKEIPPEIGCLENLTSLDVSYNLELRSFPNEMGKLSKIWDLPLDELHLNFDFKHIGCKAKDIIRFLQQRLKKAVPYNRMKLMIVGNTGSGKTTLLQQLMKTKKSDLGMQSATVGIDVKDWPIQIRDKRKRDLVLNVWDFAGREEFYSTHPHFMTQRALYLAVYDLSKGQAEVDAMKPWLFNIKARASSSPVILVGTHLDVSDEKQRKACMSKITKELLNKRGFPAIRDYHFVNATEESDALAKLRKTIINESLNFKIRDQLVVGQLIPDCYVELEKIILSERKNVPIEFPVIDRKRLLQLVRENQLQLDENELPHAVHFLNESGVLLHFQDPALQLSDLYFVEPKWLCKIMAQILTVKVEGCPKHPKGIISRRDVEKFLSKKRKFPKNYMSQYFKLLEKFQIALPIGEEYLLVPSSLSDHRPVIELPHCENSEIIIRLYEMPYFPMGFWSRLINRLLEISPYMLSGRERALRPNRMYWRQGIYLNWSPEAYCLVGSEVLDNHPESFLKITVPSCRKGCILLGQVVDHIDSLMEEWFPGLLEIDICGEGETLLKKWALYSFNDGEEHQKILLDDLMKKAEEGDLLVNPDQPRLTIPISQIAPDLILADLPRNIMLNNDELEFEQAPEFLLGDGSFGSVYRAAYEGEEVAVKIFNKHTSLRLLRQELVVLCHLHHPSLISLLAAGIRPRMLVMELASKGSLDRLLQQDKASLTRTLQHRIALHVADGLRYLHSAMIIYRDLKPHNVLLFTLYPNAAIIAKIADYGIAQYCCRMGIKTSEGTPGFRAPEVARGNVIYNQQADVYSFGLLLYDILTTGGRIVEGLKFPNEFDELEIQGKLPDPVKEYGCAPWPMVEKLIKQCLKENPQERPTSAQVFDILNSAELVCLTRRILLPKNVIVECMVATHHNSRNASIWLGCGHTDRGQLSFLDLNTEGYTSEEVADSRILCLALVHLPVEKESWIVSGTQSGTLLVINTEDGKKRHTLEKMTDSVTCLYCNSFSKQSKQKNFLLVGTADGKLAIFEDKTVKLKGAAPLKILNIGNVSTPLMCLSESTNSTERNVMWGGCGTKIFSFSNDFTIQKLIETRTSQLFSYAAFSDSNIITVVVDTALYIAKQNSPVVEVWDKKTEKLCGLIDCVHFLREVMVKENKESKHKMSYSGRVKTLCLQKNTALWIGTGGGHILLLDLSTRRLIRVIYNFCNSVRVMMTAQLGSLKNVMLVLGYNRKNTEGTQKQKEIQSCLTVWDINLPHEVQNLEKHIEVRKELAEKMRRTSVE
Full length G2019 human LRRK2, sequence (Q5S007 other isoform, or with tags, fused parts or gaps): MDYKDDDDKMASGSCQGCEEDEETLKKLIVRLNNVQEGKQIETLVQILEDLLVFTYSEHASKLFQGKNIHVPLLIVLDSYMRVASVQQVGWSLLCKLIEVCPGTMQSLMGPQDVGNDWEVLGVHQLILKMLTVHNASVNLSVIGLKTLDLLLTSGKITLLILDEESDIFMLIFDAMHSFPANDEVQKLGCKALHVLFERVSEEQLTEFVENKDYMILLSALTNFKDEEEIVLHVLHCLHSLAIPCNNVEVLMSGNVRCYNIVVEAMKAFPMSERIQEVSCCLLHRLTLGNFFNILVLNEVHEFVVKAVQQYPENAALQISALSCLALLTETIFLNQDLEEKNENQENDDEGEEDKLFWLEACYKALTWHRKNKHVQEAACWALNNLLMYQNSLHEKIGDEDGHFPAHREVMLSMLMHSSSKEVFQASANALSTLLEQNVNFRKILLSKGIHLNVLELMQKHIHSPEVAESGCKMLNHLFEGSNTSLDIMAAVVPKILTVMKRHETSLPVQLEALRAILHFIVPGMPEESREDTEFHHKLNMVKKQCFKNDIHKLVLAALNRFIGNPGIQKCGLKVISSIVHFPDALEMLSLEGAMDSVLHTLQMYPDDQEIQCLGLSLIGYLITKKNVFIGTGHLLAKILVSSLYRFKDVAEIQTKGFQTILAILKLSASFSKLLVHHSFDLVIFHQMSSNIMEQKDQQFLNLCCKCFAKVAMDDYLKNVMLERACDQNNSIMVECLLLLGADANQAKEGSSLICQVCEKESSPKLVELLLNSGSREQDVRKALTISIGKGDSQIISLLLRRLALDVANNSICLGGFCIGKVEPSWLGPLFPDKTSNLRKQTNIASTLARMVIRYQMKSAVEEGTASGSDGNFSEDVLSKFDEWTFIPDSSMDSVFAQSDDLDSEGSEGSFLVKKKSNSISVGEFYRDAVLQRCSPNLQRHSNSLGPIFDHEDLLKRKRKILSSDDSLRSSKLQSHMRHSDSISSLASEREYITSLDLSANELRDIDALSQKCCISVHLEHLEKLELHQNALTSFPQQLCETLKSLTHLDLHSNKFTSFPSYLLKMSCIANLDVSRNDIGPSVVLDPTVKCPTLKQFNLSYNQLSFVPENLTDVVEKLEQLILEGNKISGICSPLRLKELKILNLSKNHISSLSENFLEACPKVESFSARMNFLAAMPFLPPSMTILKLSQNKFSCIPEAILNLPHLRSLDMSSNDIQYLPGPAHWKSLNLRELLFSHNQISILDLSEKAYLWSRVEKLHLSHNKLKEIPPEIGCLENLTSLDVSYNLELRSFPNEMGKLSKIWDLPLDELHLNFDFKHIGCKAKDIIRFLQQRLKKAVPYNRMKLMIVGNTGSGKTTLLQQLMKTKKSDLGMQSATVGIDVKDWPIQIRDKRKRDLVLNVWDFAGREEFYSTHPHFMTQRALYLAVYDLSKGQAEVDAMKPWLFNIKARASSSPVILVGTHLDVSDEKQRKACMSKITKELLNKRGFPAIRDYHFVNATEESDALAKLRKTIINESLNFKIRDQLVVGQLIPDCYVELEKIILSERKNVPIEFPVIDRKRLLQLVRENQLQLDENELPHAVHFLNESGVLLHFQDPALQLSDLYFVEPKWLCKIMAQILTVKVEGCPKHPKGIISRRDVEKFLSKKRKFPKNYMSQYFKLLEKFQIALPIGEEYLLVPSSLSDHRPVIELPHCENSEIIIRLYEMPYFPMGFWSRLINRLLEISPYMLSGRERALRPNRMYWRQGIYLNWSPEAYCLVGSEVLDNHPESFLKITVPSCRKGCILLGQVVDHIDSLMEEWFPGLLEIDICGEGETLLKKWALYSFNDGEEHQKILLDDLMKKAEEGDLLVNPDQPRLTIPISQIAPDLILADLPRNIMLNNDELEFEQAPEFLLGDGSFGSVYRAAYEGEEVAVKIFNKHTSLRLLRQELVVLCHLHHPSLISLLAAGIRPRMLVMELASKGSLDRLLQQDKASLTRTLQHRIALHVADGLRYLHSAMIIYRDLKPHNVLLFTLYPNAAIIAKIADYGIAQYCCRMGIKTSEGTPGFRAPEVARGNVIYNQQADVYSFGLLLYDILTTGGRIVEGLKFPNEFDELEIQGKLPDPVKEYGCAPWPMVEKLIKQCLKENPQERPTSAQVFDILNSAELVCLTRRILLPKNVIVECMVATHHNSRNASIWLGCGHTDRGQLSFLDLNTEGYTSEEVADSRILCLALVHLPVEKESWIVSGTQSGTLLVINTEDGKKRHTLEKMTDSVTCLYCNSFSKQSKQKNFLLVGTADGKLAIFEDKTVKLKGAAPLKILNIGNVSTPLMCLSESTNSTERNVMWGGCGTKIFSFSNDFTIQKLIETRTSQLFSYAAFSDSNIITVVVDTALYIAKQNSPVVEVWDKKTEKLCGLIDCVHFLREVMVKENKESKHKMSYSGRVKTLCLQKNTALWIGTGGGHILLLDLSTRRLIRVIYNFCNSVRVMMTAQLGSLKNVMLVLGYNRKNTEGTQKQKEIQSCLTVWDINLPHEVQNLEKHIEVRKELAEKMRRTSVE

IC50 [1] | IC50 [2] | Full length G2019 human LRRK2 Inhibition mass spectrometry assay (pIC50) [2] | SMILES
79.4 nM |  | 7.6 | Cc1nc(N2CCO[C@@H](CO)C2)cc(-n2ncc3cc(C)c(C4CCNCC4)cc32)n1 [Example E188, (R)-(4-(2-Methyl-6-(5-methyl-6-(piperidin-4-yl)-1H-indazol-1-yl)pyrimidin-4-yl)morpholin-2-yl)methanol]
63.1 nM |  | 7.9 | Cc1nc(N2CCO[C@H](CO)C2)cc(-n2ncc3cc(C)c(C4CCN(C5COC5)CC4)cc32)n1 [Example E183, (S)-(4-(2-Methyl-6-(5-methyl-6-(1-(oxetan-3-yl)piperidin-4-yl)-1H-indazol-1-yl)pyrimidin-4-yl)morpholin-2-yl)methanol]
 | ≤ 10000 nM |  | Cc1nc(-n2ncc3cc(C)c(C4CCN(C5COC5)CC4F)cc32)cc([C@H]2C[C@@H](O)C2)n1 (single isomer, unassigned) [Example E45, (cis)-(1s,3s)-3-(6-(6-(3-Fluoro-1-(oxetan-3-yl)piperidin-4-yl)-5-methyl-1H-indazol-1-yl)-2-methylpyrimidin-4-yl)cyclobutanol]
≤ 100 nM | ≤ 10000 nM |  | COc1nc(N2CC(C)(O)C2)cc(-n2ncc3cc(C)c(C4CCN(C5COC5)CC4)cc32)n1 [Example E80, 1-(2-Methoxy-6-(5-methyl-6-(1-(oxetan-3-yl)piperidin-4-yl)-1H-indazol-1-yl)pyrimidin-4-yl)-3-methylazetidin-3-ol]
39.8 nM |  | 7.7 | Cc1nc(N2CCO[C@H](CO)C2)cc(-n2ncc3cc(Cl)c(C4CCN(C5COC5)CC4)cc32)n1 [Example E208, (S)-(4-(6-(5-Chloro-6-(1-(oxetan-3-yl)piperidin-4-yl)-1H-indazol-1-yl)-2-methylpyrimidin-4-yl)morpholin-2-yl)methanol]
≤ 100 nM | ≤ 10000 nM |  | Cc1nc(N2CC(O)C2)cc(-n2ncc3cc(C)c(C4CCN(C5COC5)CC4F)cc32)n1 (single isomer, unassigned) [Example E42, (cis)-1-(6-(6-(3-Fluoro-1-(oxetan-3-yl)piperidin-4-yl)-5-methyl-1H-indazol-1-yl)-2-methylpyrimidin-4-yl)azetidin-3-ol]

More lines, now with the values behind:

SMILES | IC50 [1] | IC50 [2] | Full length G2019 human LRRK2 Inhibition mass spectrometry assay (pIC50) [2]
COc1nc(N2CC(O)C2)cc(-n2ncc3cc(C)c(C4CN(C)CCO4)cc32)n1 (single isomer, unassigned) [Example E230, 1-(2-Methoxy-6-(5-methyl-6-(4-methylmorpholin-2-yl)-1H-indazol-1-yl)pyrimidin-4-yl)azetidin-3-ol] | 631 nM | 251 nM | 
COc1nc(N2CCO[C@@H](CO)C2)cc(-n2ncc3cc(C)c(C4CCN(C5COC5)CC4F)cc32)n1 (single isomer, unassigned) [Example E170] | 5.01 nM | 7.94 nM | 
COc1nc(N2CCOCC2)cc(-n2ncc3cc(C)c(C4CCNCC4)cc32)n1.Cl [Example E205, 4-(2-Methoxy-6-(5-methyl-6-(piperidin-4-yl)-1H-indazol-1-yl)pyrimidin-4-yl)morpholine] | 50.1 nM |  | 7.7
Cc1nc(N2CCO[C@@H](CO)C2)cc(-n2ncc3cc(C)c(C4CCOCC4)cc32)n1 [Example E239, (R)-(4-(2-Methyl-6-(5-methyl-6-(tetrahydro-2H-pyran-4-yl)-1H-indazol-1-yl)pyrimidin-4-yl)morpholin-2-yl)methanol] | 158 nM |  | 7.9
